Test results from PMC4847484, “Chemical generation and modification of peptides containing multiple dehydroalanines” (Chemical Communications (Cambridge, England), 2015).
Where two headings read alike, the source gives them in different places. Positions of bridges follow the written chain, without caps; N, C: chain ends. No end group written: not given here.

Experiments:
[1] = target: human plasma kallikrein (Homo sapiens, UniProt P03952); test: Kallikrein inhibition assay (residual HPK activity, fluorogenic substrate Z-Phe-Arg-AMC); type: biochemical
[2] = the molecule shown is the open-chain precursor, crosslinker bond, 31-membered ring
[3] = TBMB/NH4HCO3, aq NH4HCO3 (pH 8)/MeCN, 1.67 mM

Sequence of human plasma kallikrein (P03952 391-638 limits assumed): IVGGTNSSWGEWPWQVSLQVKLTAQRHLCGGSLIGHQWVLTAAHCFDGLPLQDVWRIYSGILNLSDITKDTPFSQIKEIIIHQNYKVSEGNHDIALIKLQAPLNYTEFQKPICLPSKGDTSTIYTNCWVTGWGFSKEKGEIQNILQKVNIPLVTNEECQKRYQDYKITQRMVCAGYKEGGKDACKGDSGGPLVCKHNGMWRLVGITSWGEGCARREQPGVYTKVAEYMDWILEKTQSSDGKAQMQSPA
Sequence of human plasma kallikrein (P03952 20-390 partner limits assumed): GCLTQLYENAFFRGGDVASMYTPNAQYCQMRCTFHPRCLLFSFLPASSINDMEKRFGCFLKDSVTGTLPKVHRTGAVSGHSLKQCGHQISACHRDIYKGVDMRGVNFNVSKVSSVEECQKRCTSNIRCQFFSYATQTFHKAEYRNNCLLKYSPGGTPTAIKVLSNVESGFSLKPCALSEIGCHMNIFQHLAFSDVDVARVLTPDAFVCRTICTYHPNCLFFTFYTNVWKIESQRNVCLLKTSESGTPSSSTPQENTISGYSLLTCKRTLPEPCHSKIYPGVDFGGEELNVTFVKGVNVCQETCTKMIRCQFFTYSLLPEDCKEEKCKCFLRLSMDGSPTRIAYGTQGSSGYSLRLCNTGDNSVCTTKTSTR

Substance	ring closure, yield after HPLC [2, 3] [%]	other results
13: stereochemically scrambled bicyclic peptide mixture from cyclisation of 12 with trithiol 2 (ACSDRFRNCPADEALCG; linker 2-9-16 via 1,3,5‑tris(mercaptomethyl)benzene; also: mixture of 8 stereoisomers (D/L at Cys2, Cys9, Cys16)) [compound 13]		IC50 ([1]; crude reaction mixture of the conversion of 12 to 13, before purification, same kallikrein inhibition assay): 238 ± 21 nM; IC50 ([1]; purified peptide, HPK incubated 30 min at room temperature with bicyclic peptide, substrate Z-Phe-Arg-AMC, Tris 10 mM pH 7.4, NaCl, MgCl2, CaCl2, 0.1% BSA, 0.01% Triton X-100, 5% DMSO, ex 355 / em 460 nm, logistic fit): 144 ± 31 nM
H-Ala-Cys-Ser-Asp-Arg-Phe-Arg-Asn-Cys-Pro-Ala-Asp-Glu-Ala-Leu-Cys-Gly-NH2?	29	
H-Ala-Cys-Ser-Asp-Arg-Phe-Arg-Asn-Cys-Pro-Ala-Asp-Glu-Ala-Leu-dCys-Gly-NH2?	10	
H-Ala-Cys-Ser-Asp-Arg-Phe-Arg-Asn-dCys-Pro-Ala-Asp-Glu-Ala-Leu-Cys-Gly-NH2?	16	
H-Ala-Cys-Ser-Asp-Arg-Phe-Arg-Asn-dCys-Pro-Ala-Asp-Glu-Ala-Leu-dCys-Gly-NH2?	24	
H-Ala-Dha-Ser-Asp-Arg-Phe-Arg-Asn-Dha-Pro-Ala-Asp-Glu-Ala-Leu-Dha-Gly-NH2		ring closure, yield after HPLC ([2]; 1,3,5-tris(mercaptomethyl)benzene/K2CO3, H2O/DMF 1:1, 1.15 mM, 37.0 °C): 43%
H-Ala-dCys-Ser-Asp-Arg-Phe-Arg-Asn-Cys-Pro-Ala-Asp-Glu-Ala-Leu-Cys-Gly-NH2?	26	
H-Ala-dCys-Ser-Asp-Arg-Phe-Arg-Asn-Cys-Pro-Ala-Asp-Glu-Ala-Leu-dCys-Gly-NH2?	16	
H-Ala-dCys-Ser-Asp-Arg-Phe-Arg-Asn-dCys-Pro-Ala-Asp-Glu-Ala-Leu-Cys-Gly-NH2?	26	
H-Ala-dCys-Ser-Asp-Arg-Phe-Arg-Asn-dCys-Pro-Ala-Asp-Glu-Ala-Leu-dCys-Gly-NH2?	26	
